Test results taken from patent US8735423B2, “Bicyclic compounds as α4β2 nicotinic acetylcholine receptor ligands” (priority 2009, dated 2014).

Columns and labels:
Male Wistar rats = assay: Acute Food Intake Study (animal model of hyperphagia); type: in vivo; details: rat, oral
Method: The appetite suppressing properties of compounds of this invention were studied using an animal model of hyperphagia.
Male Wistar rats (200-210 grams) obtained from Raj Biotech, India were used as experimental animals. The experiment consisted of 6 days. The rats were adapted to the 18 hour fasting and 6 hour feeding pattern. The animals were housed in a group of three in the cages provided with the fasting grills and were fasted for 18 hours. After 18 hour fasting the rats were separated and placed individually in a cage. Weighed amount of feed was provided to rats for 6 hour and the feed intake at 1, 2, 4 and 6 hours was recorded. Again the rats were regrouped and fasted for 18 hour. The above procedure was followed for 5 days. The average cumulative food intake by the rats on the last 3 days was calculated. Animals were randomised on the basis of their last three days food intake.
One group of 8 rats received vehicle (2 mL/Kg) orally and another set of animals received compound of the formula (I) orally. Then the rats were given access to food and the food intake at 1, 2, 4 and 6 hours was recorded. The food intake by the rats treated with test compound was compared with the vehicle treated group by using students ‘t’ test.
Following compound shown positive effects indicating the suppression of food intake i.e. hypophagia like effects.

[1] = molecular target: Human or Rat Nicotinic Acetylcholine α4β2 receptor (UniProt P09483+P12390); assay: Binding assay for Human or Rat Nicotinic Acetylcholine α4β2 receptor ([3H] Cytisine); details: [3H] Cytisine 2.5 nM; rat brain frontal cortex or recombinant human cDNA expressed in CHO cells
Method: Binding assay for Human or Rat Nicotinic Acetylcholine α4β2 receptor
Compounds can be evaluated according to the following procedures.
Materials and Methods: • Receptor source: Rat brain frontal cortex or recombinant human cDNA expressed in CHO cells • Radioligand: [^3H] Cytisine 15-40 Ci/mmol • Final ligand concentration—[2.5 nM] • Non-specific determinant: Epibatidine-[0.1 μM] • Reference compound: Epibatidine • Positive control: Epibatidine Incubation Conditions:
Increasing concentrations of test compounds or standard were incubated with membrane receptors and radioligand in 120 mM NaCl, 2.5 mM KCl, 1 mM CaCl2, 1 mM MgCl2 and 50 mM TRIS-HCl (pH 7.4) for 60 minutes at room temperature. The reaction was terminated by rapid vacuum filtration onto the glass fiber filters. Radioactivity trapped onto the filters was determined and compared to the control values in order to ascertain any interactions of the test compound(s) with either cloned human or rat receptor binding site.
Literature Reference: Bunnelle W. H., Daanen J. F., Ryther K. B., Schrimpf M. R., Dart M. J., Gelain A., Meyer M. D., Frost J. M., Anderson D. J., Buckley M., Curzon P., Cao Y-J., Puttfarcken P., Searle X., Ji J., Putman C. B., Surowy C., Toma L. and Barlocco D. Structure-Activity Studies and Analgesic Efficacy of N-(3-Pyridinyl)-Bridged Bicyclic Diamines, Exceptionally Potent Agonists at Nicotinic Acetylcholine Receptors. J. Med. Chem. 2007, 50, […].

Male Wister rats = assay: Object Recognition Task Model; type: in vivo; details: rat; for Exploration time mean ± S.E.M, Familiar object / Exploration time mean ± S.E.M, Novel object: choice trial T2
Method: Object Recognition Task Model
The cognition-enhancing properties of compounds of this invention were estimated using a model of animal cognition: the object recognition task model.
Male Wister rats (230-280 grams) obtained from N. I. N. (National Institute of Nutrition, Hyderabad, India) was used as experimental animals. Four animals were housed in each cage. Animals were kept on 20% food deprivation before one day and given water ad libitum throughout the experiment and maintained on a 12 hours light/dark cycle. Also the rats were habituated to individual arenas for 1 hour in the absence of any objects.
One group of 12 rats received vehicle (1 mL/Kg) orally and another set of animals received compound of the formula (I) either orally or i.p., before one hour of the familiar (T1) and choice trial (T2).
The experiment was carried out in a 50×50×50 cm open field made up of acrylic. In the familiarization phase, (T1), the rats were placed individually in the open field for 3 minutes, in which two identical objects (plastic bottles, 12.5 cm height×5.5 cm diameter) covered in yellow masking tape alone (a1 and a2) were positioned in two adjacent corners, 10 cm. from the walls. After 24 hours of the (T1) trial for long-term memory test, the same rats were placed in the same arena as they were placed in T1 trial. Choice phase (T2) rats were allowed to explore the open field for 3 minutes in presence of one familiar object (a3) and one novel object (b) (Amber color glass bottle, 12 cm high and 5 cm in diameter). Familiar objects presented similar textures, colors and sizes. During the T1 and T2 trial, explorations of each object (defined as sniffing, licking, chewing or having moving vibrissae whilst directing the nose towards the object at a distance of less than 1 cm) were recorded separately by stopwatch. Sitting on an object was not regarded as exploratory activity, however, it was rarely observed.
T1 is the total time spent exploring the familiar objects (a1+a2).
T2 is the total time spent exploring the familiar object and novel object (a3+b).
The object recognition test was performed as described by Ennaceur, A., Delacour, J., 1988, A new one-trial test for neurobiological studies of memory in rats—Behavioural data, Behay. Brain Res., 31, 47-59.
Some representative compounds have shown positive effects indicating the increased novel object recognition viz; increased exploration time with novel object and higher discrimination index.

High Fat Fed Rats = assay: Effect of Test Compounds on Body Weight Gain in High Fat Fed Rats; type: in vivo, rat; details: high fat diet fed Sprague Dawley rats, oral for 14 days
Source text: Effect of Test Compounds on Body Weight Gain in High Fat Fed Rats
The body weight gain suppressing properties of compounds of this invention were studied using a animal model of obesity.
Male Sprague Dawley rats (150-160 grams) obtained from Reliance Life Sciences, India were used as experimental animals. Rats were fed with control diet (normal pellet diet) and lard based high fat diet (45% kcal diet) for 7-8 weeks. High fat diet fed animals was randomized according to their body weights. The animals were housed in a group of 3-4 per cage. One group of 10 rats received vehicle (2 mL/Kg) orally and another set of animals received compound of the formula (I) orally for 14 days. Body weight of the animals was recorded for first three consecutive days then it was recorded twice weekly. Weighed amount of food was given to the animals and food intake was recorded every 24 hour for the entire study period.
Following compound shown positive effects indicating the decrease in the body weight gain.

Row | SMILES | Inference (Male Wistar rats) | % Suppression of food intake compared to vehicle (Male Wistar rats; 1 Hour) [%] | % Suppression of food intake compared to vehicle (Male Wistar rats; 2 Hour) [%] | % Suppression of food intake compared to vehicle (Male Wistar rats; 4 Hour) [%] | % Suppression of food intake compared to vehicle (Male Wistar rats; 6 Hour) [%] | Ki [1] [nM] | Inference (Male Wister rats; 0.1 mg/kg p.o.) | Exploration time mean ± S.E.M, Familiar object (Male Wister rats; 0.1 mg/kg p.o.) [s] | Exploration time mean ± S.E.M, Novel object (Male Wister rats; 0.1 mg/kg p.o.) [s] | % Reduction in body weight gain compared to vehicle (Day 14) (High Fat Fed Rats) [%] | Inference (High Fat Fed Rats) | Inference (Male Wister rats; 1 mg/kg p.o.) | Exploration time mean ± S.E.M, Familiar object (Male Wister rats; 1 mg/kg p.o.) [s] | Exploration time mean ± S.E.M, Novel object (Male Wister rats; 1 mg/kg p.o.) [s]
1 | Cl.c1cncc(OCC2CC3CC3N2)c1 (stereo not drawn) [Example 1, 3-(Pyridin-3-yloxymethyl)-2-azabicyclo[3.1.0]hexane hydrochloride] | Active | 32.25 | 25.40 | 23.08 | 15.37 | 7.7 | Active | 7.75 ± 0.84 | 12.65 ± 1.96 | 3.6 | Active |  |  | 
2 | Cl.Cl.Clc1cncc(OCC2CC3CC3N2)c1 (stereo not drawn) [Example 7, 3-(5-Chloropyridin-3-yloxymethyl)-2-azabicyclo[3.1.0]hexane dihydrochloride] |  |  |  |  |  | 0.19 |  |  |  |  |  | Active | 6.81 ± 1.49 | 16.70 ± 3.19
